Source: patent publication US4614746A, “5-fluorobenzonitrile derivatives for increasing the lean meat to fat ratio and/or enhancing the growth rate of warm-blooded animals” (American Cyanamid Company, priority 1985, dated 1986)

Key:
[1] = target: T1, beta-1 adrenergic receptor (Meleagris gallopavo, UniProt P07700); experiment: Beta-1 adrenergic activity, (H3) dihydroalprenolol radioligand binding to erythrocyte membranes; design: species or system turkey and rat; settings: (H3) DHA, room temperature (23° C.), one hour; read-out: β1 K-50 (concentration required to displace 50% radioactive ligand from binding sites of beta adrenergic receptors)
T1 construct: Beta-1 adrenergic receptor membranes are isolated from turkey and rat erythrocytes; from tissue; host or cells: erythrocyte membranes from freshly drawn turkey blood (rat blood also given)
T1 sequence (P07700 whole entry): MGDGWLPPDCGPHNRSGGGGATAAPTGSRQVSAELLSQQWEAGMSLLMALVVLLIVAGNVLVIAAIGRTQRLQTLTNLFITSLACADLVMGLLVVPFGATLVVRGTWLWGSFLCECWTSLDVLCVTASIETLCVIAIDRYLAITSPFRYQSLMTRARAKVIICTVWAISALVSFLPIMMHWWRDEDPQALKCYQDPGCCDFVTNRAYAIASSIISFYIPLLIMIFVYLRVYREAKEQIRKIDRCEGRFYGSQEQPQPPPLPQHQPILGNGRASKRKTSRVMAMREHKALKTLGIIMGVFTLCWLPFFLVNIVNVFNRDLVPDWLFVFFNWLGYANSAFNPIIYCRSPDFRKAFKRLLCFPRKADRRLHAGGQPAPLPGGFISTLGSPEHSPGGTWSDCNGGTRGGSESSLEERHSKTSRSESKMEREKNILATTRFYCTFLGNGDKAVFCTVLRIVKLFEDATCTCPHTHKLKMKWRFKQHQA
Experimental: Beta-1 adrenergic activity of experimental compounds is identified by radioactive ligand-binding studies by using beta adrenergic receptor membranes and adrenergic antagonist (H3) dihydroalprenolol (DHA). Binding of (H3) DHA to membrane fractions is assayed by filtration on glass fiber filters. Specific binding is defined as total radioactivity bound minus nonspecific bound radioactivity, i.e., binding in the presence of 100 μM nonradioactive DHA. Results are expressed as the concentrations of the compound required to displace 50% radioactive ligand from binding of beta adrenergic receptors (K-50).
In these tests, beta adrenergic receptor membranes are incubated with radioactive dihydroalprenolol (H3 DHA) and experimental compounds. The bound radio-ligand is separated by filtration on glass fiber filters and counted by scintillation counter.
Radioactive ligand, H3 dihydroalprenolol (DHA) and aquasol are purchased from New England Nuclear Corporation, DMSO is supplied by J. T. Baker Company, and all other chemicals are obtained from Sigma Chemical Company.
Beta-1 adrenergic receptor membranes are isolated from turkey and rat erythrocytes respectively using the procedures of:
Freshly drawn heparinized whole blood from turkeys and rats is centrifuged for five minutes (4×500 g). The plasma is withdrawn; the remaining erythrocytes are suspended in 150 mM sodium chloride solutions and centrifuged. The cells are resuspended and centrifuged twice more. The cells are hemolyzed in 10 volume of cold distilled water containing 2 mM dithiothreitol, 100 μM phenylmethyl sulfonyl fluoride, 5 μg/mL leupeptin, 200 μg/mL bacitacin, 0.1% bovine serum albumin, and 10 units/mL aprotonin, and centrifuged at 3000×g for five minutes. The bottom gelatin layer is discarded. The top layer is suspended and centrifuged five times at 3000×g and resuspended in tris buffer (145 mM NaCl, 1 mM ethylene glycol-bis(β-aminoethyl ether) N,N,N,N, tetraacetic acid, 2 mM MgCl2, 10 mM tris, and 10% glycerol, pH 7.4). The resuspended membranes are further purified with differential centrifugation by using sucrose albumin cushion, and subsequently stored in small aliquots at -70° C. The protein concentration of receptor membranes is determined by the biuret method.
To duplicate incubation, tubes are added 200 μl suspended membranes (200 μg protein), 25 μl of compound in solution or buffer and 25 μl (H3) dihydroalprenolol (200,000 CPM). Tubes were incubated at room temperature (23° C.) for an hour and then filtered rapidly under vacuum through Whatman GF/B filters. The filters are rinsed three times with 5 mL of cold buffer (145 mM NaCl, 1 mM ethylenediaminetetraacetic acid, and 10 mM tris, pH 7.4) and subsequently counted by liquid scintillation counter in 10 mL of aquasol. Specific binding of H3 DHA is defined as the excess over blank containing 100 μM nonradioactive DHA. Six serial dilutions of each compound are tested.
Beta adrenergic activity is inversely related to K-50 (the concentrations of the compound required to displace 50% radioactive ligand from binding sites of beta adrenergic receptors, i.e., 50% binding) value.

[2] = in words; cited from earlier work

SMILES	IC50 [1] [µM]	bronchodilator activity [2]	heart stimulant activity [2]
CCCC(C)NCC(O)c1cc(F)cc(C#N)c1 (stereo not shown) [drawing 19]	2.2	–	–
CC(C)(C)NCC(O)c1cc(Cl)c(N)c(Cl)c1 (stereo not shown) [Clenbuterol]	–	very effective bronchodilator	potent heart
CC(C)(C)NCC(O)c1cc(F)cc(C#N)c1 (stereo not shown) [drawing 23]	16.6	–	–
CC(C)NCC(O)c1cc(F)cc(C#N)c1 (stereo not shown) [drawing 22]	12.3	–	–
CCNCC(O)c1cc(F)cc(C#N)c1 (stereo not shown) [drawing 21]	3.04	–	–
CC(C)N(CC(O)c1cc(F)cc(C#N)c1)C(C)C (stereo not shown) [drawing 20]	2.95	–	–
